This note sets out measurements from article PMC6271771, “4-Amino-substituted Benzenesulfonamides as Inhibitors of Human Carbonic Anhydrases” (Molecules, 2014).

One data set deals with T1, CA VI (Homo sapiens, UniProt P23280).
T1 construct: made in house
Kind of data set: Fluorescent thermal shift assay (FTSA), CA VI. Format: binding. Particulars: FTSA, pH 7.0, 37 °C; read-out: Compound Dissociation Constants Kd for CA VI.

The next data set has as its target T2, CA II (Homo sapiens, UniProt P00918).
T2 construct: made in house
Kind of data set: Fluorescent thermal shift assay (FTSA), CA II. The note with it: pH 7.0, 37 °C, read-out: Compound Dissociation Constants Kd for CA II. The format is binding.

Another data set has as its target T3, CA I (Homo sapiens, UniProt P00915).
T3 construct: made in house
Kind of data set: Fluorescent thermal shift assay (FTSA), CA I. The format is binding.

Another data set addresses T4, CA XIII (Homo sapiens, UniProt Q8N1Q1).
T4 construct: made in house
Kind of data set: Fluorescent thermal shift assay (FTSA), CA XIII. Format: binding. Particulars: FTSA, pH 7.0, 37 °C; read-out: Compound Dissociation Constants Kd for CA XIII.

In the next data set the target is T5, CA VII (Homo sapiens, UniProt P43166).
T5 construct: made in house
T5 sequence (P43166 whole entry): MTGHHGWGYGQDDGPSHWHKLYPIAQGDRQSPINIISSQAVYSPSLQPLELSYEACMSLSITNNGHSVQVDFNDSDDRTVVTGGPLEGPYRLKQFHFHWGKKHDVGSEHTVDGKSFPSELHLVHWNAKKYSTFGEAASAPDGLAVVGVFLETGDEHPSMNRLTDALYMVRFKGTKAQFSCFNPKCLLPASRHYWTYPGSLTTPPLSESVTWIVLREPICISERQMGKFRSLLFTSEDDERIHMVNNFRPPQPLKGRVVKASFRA
Kind of data set: Fluorescent thermal shift assay (FTSA), CA VII. The format is binding.

A further data set has as its target T6, CA XII (Homo sapiens, UniProt O43570).
T6 construct: made in house
Kind of data set: Fluorescent thermal shift assay (FTSA), CA XII. The note with it: FTSA, pH 7.0, 37 °C; read-out: Compound Dissociation Constants Kd for CA XII. The format is binding.

Setting [1] is: FTSA, pH 7.0, 37 °C, read-out: Compound Dissociation Constants Kd for CA I.
The mark [2] stands for this setting: FTSA, pH 7.0, 37 °C, read-out: Compound Dissociation Constants Kd for CA VII.

Where “and” joins values, the source holds several entries; their conditions need not be identical. Equal values may be shown once. Read-outs that look alike come from different tables or passages of the source.

T4 sequence (Q8N1Q1 whole entry): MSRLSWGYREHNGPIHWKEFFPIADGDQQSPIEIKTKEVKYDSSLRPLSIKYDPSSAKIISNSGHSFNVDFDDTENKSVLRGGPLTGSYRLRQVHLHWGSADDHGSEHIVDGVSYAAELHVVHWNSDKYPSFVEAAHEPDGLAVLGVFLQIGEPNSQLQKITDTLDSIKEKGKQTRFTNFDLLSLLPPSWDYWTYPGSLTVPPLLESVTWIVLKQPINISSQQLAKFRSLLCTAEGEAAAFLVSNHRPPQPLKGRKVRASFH
T1 sequence (P23280 18-308): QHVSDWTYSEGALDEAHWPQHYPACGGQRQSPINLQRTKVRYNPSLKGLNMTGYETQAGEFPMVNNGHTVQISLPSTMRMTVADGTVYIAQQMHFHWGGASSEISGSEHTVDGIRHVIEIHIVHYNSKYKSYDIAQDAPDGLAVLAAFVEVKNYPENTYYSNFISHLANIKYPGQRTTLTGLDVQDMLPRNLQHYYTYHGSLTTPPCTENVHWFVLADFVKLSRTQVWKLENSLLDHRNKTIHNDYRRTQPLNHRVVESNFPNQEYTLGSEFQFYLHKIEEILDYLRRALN
T3 sequence (P00915 whole entry): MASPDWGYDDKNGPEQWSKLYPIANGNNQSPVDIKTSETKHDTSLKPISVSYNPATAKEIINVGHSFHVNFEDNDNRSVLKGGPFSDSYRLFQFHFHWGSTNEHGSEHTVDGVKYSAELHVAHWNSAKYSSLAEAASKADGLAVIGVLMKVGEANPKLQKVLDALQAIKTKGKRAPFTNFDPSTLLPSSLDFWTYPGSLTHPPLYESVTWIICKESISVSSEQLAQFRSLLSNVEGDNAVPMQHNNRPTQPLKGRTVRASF
T6 sequence (O43570 30-289 limits assumed): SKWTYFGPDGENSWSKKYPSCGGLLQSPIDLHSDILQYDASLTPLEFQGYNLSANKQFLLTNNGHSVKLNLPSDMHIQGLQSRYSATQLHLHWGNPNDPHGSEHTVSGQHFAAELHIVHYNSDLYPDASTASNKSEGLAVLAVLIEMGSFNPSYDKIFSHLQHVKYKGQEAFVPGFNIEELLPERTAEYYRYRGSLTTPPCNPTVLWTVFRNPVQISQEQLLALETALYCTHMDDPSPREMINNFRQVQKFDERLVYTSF

As to `NS(=O)(=O)c1ccccc1` [BSA, benzenesulfonamide], the dissociation constant Kd at CA VI is 14 µM.

In the case of `NS(=O)(=O)c1ccc(NCCC(=O)O)cc1` [Compound 3, 3-[(4-Sulfamoylphenyl)amino]propanoic Acid], the dissociation constant (Kd) amounted to 12.5 µM on CA II; 62.5 µM at CA VI; 40 µM at CA I (setting [1]); 33.3 µM at CA XIII; 22.2 µM at CA VII (setting [2]); 9.5 µM on CA XII.

With `CCSC(=NS(=O)(=O)c1ccc(NCCC(=O)O)cc1)SCC` [Compound 4, 3-[(4-{[Bis(ethylthio)methylene]sulfamoyl}phenyl)amino]propanoic Acid], the dissociation constant Kd on CA II is 40 µM; on CA VI, greater than 200 µM; at CA I (setting [1]), greater than 200 µM; at CA XIII, greater than 200 µM; on CA VII (setting [2]), greater than 200 µM; on CA XII, greater than 200 µM.

With `NS(=O)(=O)c1ccc(N2CCC(=O)NC2=O)cc1` [Compound 5, 4-(2,4-Dioxo-1,3-diazinan-1-yl)benzene-1-sulfonamide], the Kd was 0.83 µM and 0.833 µM on CA II; 12.5 µM at CA VI; 3.85 µM at CA I (setting [1]); 8.33 µM at CA XIII; 1.54 µM at CA VII (setting [2]); 5.56 µM at CA XII.

Consider `NS(=O)(=O)c1ccc(N2CCC(=O)NC2=S)cc1` [Compound 6, 4-(4-Oxo-2-sulfanylidene-1,3-diazinan-1-yl)benzene-1-sulfonamide], for which the Kd at CA II is 0.67 µM and 0.667 µM; at CA VI, 8.3 µM; on CA I (setting [1]) it was 1.11 µM; on CA XIII it was 2.86 µM; at CA VII (setting [2]), 1.61 µM; at CA XII it was 5.56 µM.

Take `COC(=O)CCNc1ccc(S(N)(=O)=O)cc1` [Compound 7, Methyl-3-[(4-sulfamoylphenyl)amino]propanoate]: the Kd at CA II came out at 9.1 µM; at CA VI, 71.4 µM; at CA I, 35.7 µM; at CA XIII, 58.8 µM; on CA VII it was 35.7 µM; at CA XII it was 33.3 µM.

As to `NNC(=O)CCNc1ccc(S(N)(=O)=O)cc1` [Compound 8, 4-{[(2-Hydrazinecarbonyl)ethyl]amino}benzene-1-sulfonamide], the dissociation constant (Kd) is 10.5 µM on CA II; 62.5 µM on CA VI; 55.6 µM on CA I (setting [1]); 76.9 µM at CA XIII; 28.6 µM on CA VII (setting [2]); 33.3 µM at CA XII.

Consider `NC(=S)NNC(=O)CCNc1ccc(S(N)(=O)=O)cc1` [Compound 9, N-(Carbamothioylamino)-3-[(4-sulfamoylphenyl)amino]propanamide], for which the dissociation constant (Kd) at CA II is 10 µM; on CA VI it was 50 µM; at CA I (setting [1]), 58.8 µM; at CA XIII, 76.9 µM; at CA VII (setting [2]), 28.6 µM; at CA XII, 33.3 µM.

Turning to `Nc1nnc(CCNc2ccc(S(N)(=O)=O)cc2)s1` [Compound 10, 4-{[2-(5-Amino-1,3,4-thiadiazol-2-yl)ethyl]amino}benzene-1-sulfonamide], the Kd on CA II stood at 20 µM; at CA VI it was 140 µM; at CA I (setting [1]), 170 µM; on CA XIII, 83 µM; at CA VII (setting [2]), 100 µM; at CA XII it was 130 µM. Moreover, the “times more weakly bound to CA I than SA” value at CA I (ratio of Kd, FTSA) was 1.7 times.

The compound `CC(C)=NNC(=O)CCNc1ccc(S(N)(=O)=O)cc1` [Compound 11, 4-{[2-(N'-Propan-2-ylidenehydrazinecarbonyl)ethyl]amino}benzene-1-sulfonamide] yielded a melting point of 216 to 217 °C. In addition, on CA II, the dissociation constant Kd amounted to 7.14 µM. Moreover, the Kd on CA VI was 71.4 µM. Besides, the Kd on CA I (setting [1]) is 45.5 µM. Also, the dissociation constant Kd at CA XIII was 50 µM. Further, the Kd at CA VII (setting [2]) came to 28.6 µM. Also, the dissociation constant (Kd) at CA XII turned out to be 33.3 µM.

`CC(=NNC(=O)CCNc1ccc(S(N)(=O)=O)cc1)c1ccccc1` [Compound 12, 4-{(2-[N'-(1-Phenylethylidene)hydrazinecarbonyl]ethyl}amino]benzene-1-sulfonamide]: the melting point fell in the range of 185 to 186 °C. For the same compound, the Kd on CA II stood at 1.85 µM. Also, at CA VI, the equilibrium dissociation constant (Kd) worked out at 25 µM. The equilibrium dissociation constant (Kd) at CA I (setting [1]) is 15.4 µM. Further, the Kd on CA XIII is 5.56 µM. In addition, the Kd on CA VII (setting [2]) came out at 12.5 µM. The Kd at CA XII stood at 33.3 µM.

With `NS(=O)(=O)c1ccc(NCCC(=O)NN=C(c2ccccc2)c2ccccc2)cc1` [Compound 13, 4-({2-[N'-(Diphenylmethylidene)hydrazinecarbonyl]ethyl}amino)benzene-1-sulfonamide], the melting point is 170 to 171 °C. Besides, the dissociation constant (Kd) on CA II was determined as 1.43 µM. Also, at CA VI, the Kd was found to be 25 µM. Besides, the Kd at CA I (setting [1]) is 11.5 µM. Besides, the Kd at CA XIII came to 4.35 µM. The dissociation constant (Kd) on CA VII (setting [2]) was 16.7 µM. For the same compound, the equilibrium dissociation constant (Kd) on CA XII stood at 50 µM.

`Cc1ccc(C)n1NC(=O)CCNc1ccc(S(N)(=O)=O)cc1` [Compound 19]: the Kd at CA II amounted to 2 µM; on CA VI, 25 µM; at CA I (setting [1]) it was 16.7 µM; on CA XIII it was 6.25 µM; on CA VII (setting [2]), 11.1 µM; on CA XII it was 28.6 µM.

On to `NS(=O)(=O)c1ccc(NCCC(=O)NNC(=O)Nc2ccccc2)cc1` [Compound 20, N-[(Phenylcarbamoyl)amino]-3-[(4-sulfamoylphenyl)amino]propanamide], for which the dissociation constant Kd on CA II was determined as 4 µM; at CA VI, 7.1 µM; on CA I (setting [1]), 28.6 µM; at CA XIII, 18.5 µM; at CA VII (setting [2]), 12.5 µM; on CA XII it was 1.85 µM.

For `NS(=O)(=O)c1ccc(NCCC(=O)NNC(=S)Nc2ccccc2)cc1` [Compound 21, N-[(Phenylcarbamothioyl)amino]-3-[(4-sulfamoylphenil)amino]propanamide], the dissociation constant (Kd) on CA II was found to be 4 µM; on CA VI, 8.3 µM; on CA I (setting [1]), 9.09 µM; at CA XIII it was 9.09 µM; at CA VII (setting [2]), 5.56 µM; on CA XII, 5.56 µM.

Consider `NS(=O)(=O)c1ccc(NCCc2n[nH]c(=S)o2)cc1` [Compound 24, 4-{[2-(5-Sulfanylidene-4,5-dihydro-1,3,4-oxadiazol-2-yl)ethyl]amino}benzene-1-sulfonamide], for which the equilibrium dissociation constant (Kd) was 4.55 µM at CA II; 33.3 µM on CA VI; 12.5 µM at CA I (setting [1]); 26.3 µM on CA XIII; 4.55 µM on CA VII (setting [2]); 5.88 µM on CA XII.

For the compound `CCSc1nnc(CCNc2ccc(S(N)(=O)=O)cc2)o1` [Compound 25, 4-({2-[5-(Ethylsulfanyl)-1,3,4-oxadiazol-2-yl]ethyl}amino)benzene-1-sulfonamide], the dissociation constant Kd at CA II worked out at 1.18 µM; on CA VI, 28.6 µM; at CA I (setting [1]), 5.88 µM; on CA XIII, 3.33 µM; at CA VII (setting [2]), 5.6 µM; on CA XII it was 10.5 µM.

For `CN(C)/N=N/c1ccc(S(N)(=O)=O)cc1` [Compound 26], the Kd at CA II came to 0.181 µM; on CA VI it was 13.3 µM; on CA I (setting [1]) it was 0.1 µM; at CA XIII it was 0.4 µM; at CA VII (setting [2]) it was 0.769 µM; at CA XII, 2.7 µM.

As to `CCN(CC)/N=N/c1ccc(S(N)(=O)=O)cc1` [Compound 27], the Kd on CA II stood at 0.0714 µM; on CA VI it was 13.3 µM; on CA I (setting [1]) it was 0.0133 µM; at CA XIII, 0.1 µM; at CA VII (setting [2]), 0.2 µM; on CA XII it was 0.588 µM.

As to `NS(=O)(=O)c1ccc(/N=N/N2CCCC2)cc1` [Compound 28], the equilibrium dissociation constant (Kd) at CA II worked out at 0.133 µM; at CA VI, 13.3 µM; on CA I (setting [1]), 0.0333 µM; at CA XIII, 0.167 µM; on CA VII (setting [2]), 0.454 µM; on CA XII, 1.81 µM.

Consider `NS(=O)(=O)c1ccc(/N=N/N2CCOCC2)cc1` [Compound 29], for which the Kd on CA II stood at 0.1 µM; at CA VI it was 11.8 µM; at CA I (setting [1]) it was 0.029 µM; at CA XIII it was 0.222 µM; at CA VII (setting [2]), 0.4 µM; at CA XII it was 3.3 µM.

In the case of `NS(=O)(=O)c1ccc(/N=N/N2CCCCC2)cc1` [Compound 30], the dissociation constant Kd at CA II was found to be 0.0625 µM; at CA VI, 10 µM; on CA I (setting [1]), 0.00667 µM; at CA XIII, 0.0667 µM; at CA VII (setting [2]), 0.12 µM; on CA XII, 0.77 µM. In addition, at CA I (ratio of FTSA Kd), the “selectivity: bound to CA I times stronger than to CA II” value stood at 9.4 times. The “selectivity: bound to CA I times stronger than to CA VI” value on CA I (ratio of FTSA Kd) was determined as 1500 times. In addition, on CA I (ratio of FTSA Kd), the “selectivity: bound to CA I times stronger than to CA VII” value is given as 18 times. In addition, at CA I (ratio of FTSA Kd), the “selectivity: bound to CA I times stronger than to CA XII” value came out at 115 times. In addition, the “selectivity: bound to CA I times stronger than to CA XIII” value at CA I (ratio of FTSA Kd) was determined as 10 times.

As to `NS(=O)(=O)c1ccc(/N=N/SCCO)cc1` [Compound 32], the Kd was 0.0667 µM at CA II; 3.2 µM on CA VI; 0.0333 µM on CA I (setting [1]); 1.4 µM on CA XIII; 0.286 µM at CA VII (setting [2]); 2 µM on CA XII. The “CA I binding in the presence (32) versus absence (34) of the diazo group” value on CA I (comparison of Kd of 32 and 34) is on record as “about six-fold stronger”.

In the case of `NCCS/N=N/c1ccc(S(N)(=O)=O)cc1` [Compound 33], the Kd on CA II worked out at 0.278 µM; at CA VI, 8.3 µM; on CA I (setting [1]) it was 0.5 µM; on CA XIII it was 2.86 µM; on CA VII (setting [2]), 1 µM; at CA XII, 6.25 µM.
